In article PMC12655185 (Pharmaceuticals, 2025):
Where a SMILES comes first, the peptide text is derived from it. [ ]: non-standard residue; d: D form. The star is where a group is joined. X1 = O=C(O)CN1CCN(CC(=O)O)CCN([C@H](CCC(=O)*)C(=O)O)CC1; Sar = CNCC(=O)O

Legend:
[1] = Stability in human serum (radio-HPLC, LC-MS); format: in vitro ADME; settings: for remaining at 24 h: read-out: radioligand intact after 24 h in human serum
Protocol: For human serum stability investigation, 60 μL of the ^67Ga labeling mixture was mixed with 540 μL human serum and incubated at 37 °C. Aliquots of 25 μL were taken after 1, 2, 4 and 24 h. The aliquots were mixed with 75 μL of a mixture called “Supersol” (20% v/v EtOH, 0.5% Triton X-100, 5 mM EDTA, 0.5 mM o-phenantroline, and 0.1% saponine in water) and put on ice for 5 min. Subsequently, the mixtures were centrifuged at 16,100 rcf, 4 °C for 5 min. The supernatant was analyzed by analytical radio-HPLC. Serum half-lives were determined by non-linear regression according to one-phase decay. To determine the stability in labeling buffer, the labeling mixture was left at ambient temperature for 4 h. Subsequently, an aliquot of 5 μL was mixed with 45 μL of Supersol and analyzed with analytical radio-HPLC.
Analytical radio-HPLC was performed on a modular unit consisting of an operating unit (smartline manager 500, Knauer, Berlin, Germany), a pump unit (smartline pump 1000, Knauer, Berlin, Germany), a photo diode array detector (smartline PDA 2800, Knauer, Berlin, Germany) and a γ-detector (Ramona Star, Raytest, Lüttich, Belgium). The system was operated by the software Chromgate 2.8. Chromatography was conducted on a C18 column (Eurospher 100-5, 250 × 4 mm, Knauer, Berlin, Germany) at a flow rate of 1 mL/min.

[2] = LogD7.4 determination (octanol/PBS); format: physicochemical; settings: octanol / PBS pH 7.4
Protocol: The obtained solutions from ^67Ga labeling were diluted with water in a 1:1 ratio and brought to pH 7 using aqueous NaOH (1 M). For LogD7.4 determination, 10 μL of neutralized labeling solution was diluted with 290 μL 1× PBS (pH 7.4) and 300 μL 1-Octanol (both pre-saturated by each other). The mixture was vortexed vigorously for 30 s and subsequently centrifuged for 5 min at 16,100 rcf. Defined volumes of each layer (10 μL for PBS, 200 μL for Octanol) were taken and analyzed for their radioactivity (ISOMED 100, Nuvia, Frankfurt, Germany). The partition coefficient LogD7.4 was determined from the decadic logarithm of the fraction of the radioactivity content of the aqueous and octanol layers.

human serum = settings: up to 24 h

Compound	logD [2]	remaining at 24 h ([1]; 37 °C) [%]	other results
CC[C@H](C)[C@H](NC(=O)[C@H](CC(N)=O)NC(=O)[C@@H]1CCCN1C(=O)[C@@H]1CCCN1C(=O)[C@H](CCCNC(=N)N)NC(=O)[C@H](CC(=O)O)NC(=O)[C@H](CC(N)=O)NC(=O)[C@H](CO)NC(=O)CC[C@H](C(=O)O)N1CCN(CC(=O)O)CCN(CC(=O)O)CC1)C(=O)N[C@@H](CC(C)C)C(=O)N[C@@H](CCC(N)=O)C(=O)N[C@@H](CCCCN)C(=O)N[C@@H](CCCNC(=N)N)C(=O)O [[^67Ga]Ga-NODA-GA-TJ12P2(K^11), metal not drawn] (X1-SNDRPPNILQKR-OH)	-4.78 ± 0.05	–	remaining at 1 h ([1]; 37 °C, 1 h, read-out: radioligand intact after 1 h in human serum): 9.3%; half-life ([1]; human, serum, 37 °C, one-phase decay): 17.4 min; degradation product in human serum ([1]; radio-HPLC or LC-MS after 24 h): formation of a single metabolite
CC[C@H](C)[C@H](NC(=O)[C@H](CC(N)=O)NC(=O)[C@@H]1CCCN1C(=O)[C@@H]1CCCN1C(=O)[C@H](CCCNC(=N)N)NC(=O)[C@H](CC(=O)O)NC(=O)[C@H](CC(N)=O)NC(=O)[C@H](CO)NC(=O)CC[C@H](C(=O)O)N1CCN(CC(=O)O)CCN(CC(=O)O)CC1)C(=O)N[C@@H](CC(C)C)C(=O)N[C@@H](CCC(N)=O)C(=O)N[C@@H](CCC(N)=O)C(=O)N[C@@H](CCCNC(=N)N)C(=O)O [[^67Ga]Ga-NODA-GA-TJ12P2(Q^11), metal not drawn] (X1-SNDRPPNILQQR-OH)	-4.79 ± 0.03	72	–
CC[C@H](C)[C@H](NC(=O)[C@H](CC(N)=O)NC(=O)[C@@H]1CCCN1C(=O)[C@@H]1CCCN1C(=O)[C@H](CCCNC(=N)N)NC(=O)[C@H](CC(=O)O)NC(=O)[C@H](CC(N)=O)NC(=O)[C@@H](N)CO)C(=O)N[C@@H](CC(C)C)C(=O)N[C@@H](CCC(N)=O)C(=O)N[C@@H](CCCCN)C(=O)N[C@@H](CCCNC(=N)N)C(=O)N(C)CC(=O)N(C)CC(=O)N(C)CC(=O)N[C@@H](CCCCNC(=O)CC[C@H](C(=O)O)N1CCN(CC(=O)O)CCN(CC(=O)O)CC1)C(N)=O [TJ12P2(K^11)-X3K-[^67Ga]Ga-NODA-GA-CONH2, metal not drawn] (H-SNDRPPNILQKR[Sar][Sar][Sar]K(X1)-NH2)	-4.79 ± 0.03	89	–
SulfoCy3-SNDRPPNILQKR	–	–	cleaved bond (human serum): Lys11-arginine
CC[C@H](C)[C@H](NC(=O)[C@H](CC(N)=O)NC(=O)[C@@H]1CCCN1C(=O)[C@@H]1CCCN1C(=O)[C@H](CCCNC(=N)N)NC(=O)[C@H](CC(=O)O)NC(=O)[C@H](CC(N)=O)NC(=O)[C@@H](N)CO)C(=O)N[C@@H](CC(C)C)C(=O)N[C@@H](CCC(N)=O)C(=O)N[C@@H](CCC(N)=O)C(=O)N[C@@H](CCCNC(=N)N)C(=O)N(C)CC(=O)N(C)CC(=O)N(C)CC(=O)N[C@@H](CCCCNC(=O)CC[C@H](C(=O)O)N1CCN(CC(=O)O)CCN(CC(=O)O)CC1)C(N)=O [TJ12P2(Q^11)-X3K-[^67Ga]Ga-NODA-GA-CONH2, metal not drawn] (H-SNDRPPNILQQR[Sar][Sar][Sar]K(X1)-NH2)	-4.61 ± 0.05	95	–
SNDRPPNILQQRXXXK(NODA-GA)	–	–	not cleaved (human serum; 37 °C): 95% still intact after 24 h
